Measured values published in patent US8916183B2, “Pesticidal compositions and processes related thereto” (priority 2012, dated 2014).
Like-named read-outs stand apart in the source and are kept apart here.

Experiments:
Type in all cases: in vivo
[1] = tested on: Green Peach Aphid (GPA) (Myzus persicae); experiment: Bioassay on green peach aphid (GPA), foliar spray on cabbage seedlings; conditions: read-out: % Mortality GPA 200 ppm
Experimental: Certain molecules disclosed in this document were tested against GPA using procedures described in the following example. In the reporting of the results, the “GPA Rating Table” was used (See Table Section).
Cabbage seedlings grown in 3-inch pots, with 2-3 small (3-5 cm) true leaves, were used as test substrate. The seedlings were infested with 20-50 GPA (wingless adult and nymph stages) one day prior to chemical application. Four pots with individual seedlings were used for each treatment. Test compounds (2 mg) were dissolved in 2 mL of acetone/methanol (1:1) solvent, forming stock solutions of 1000 ppm test compound. […] A hand-held aspirator-type sprayer was used for spraying a solution to both sides of […] leaves until runoff. Reference plants (solvent check) were sprayed with the diluent only containing 20% by volume of acetone/methanol (1:1) solvent. Treated plants were held in a holding room for three days at approximately 25° C. and ambient relative humidity (RH) prior to grading. Evaluation was conducted by counting the number of live aphids per plant under a microscope. […] Corrected % Control=100*(X−Y)/X • where • X=No. of live aphids on solvent check plants and • Y=No. of live aphids on treated plants
The results are indicated in the table entitled “Table 5: Biological Results” (See Table Section).

[2] = tested on: Beet Armyworm (BAW) (Spodoptera exigua); experiment: Bioassay on beet armyworm (BAW), 128-well diet tray assay; conditions: Spodoptera exigua, read-out: % Mortality BAW 50 μg/cm^2
Experimental: (§1) Certain molecules disclosed in this document were tested against BAW and CEW using procedures described in the following examples. In the reporting of the results, the “BAW & CEW Rating Table” was used (See Table Section).
Bioassays on BAW (Spodoptera exigua)
Bioassays on BAW were conducted using a 128-well diet tray assay. […] Trays were covered with a clear self-adhesive cover and held at 25° C., 14:10 light-dark for five to seven days. Percent mortality was recorded for the larvae in each well; activity in the eight wells was then averaged. The results are indicated in the table entitled “Table 5: Biological Results” (See Table Section).

[3] = tested on: Corn Earworm (CEW) (Helicoverpa zea); experiment: Bioassay on corn earworm (CEW), 128-well diet tray assay; conditions: Helicoverpa zea, read-out: % Mortality CEW 50 μg/cm^2
Experimental: as §1
Bioassays on CEW (Helicoverpa zea)
Bioassays on CEW were conducted using a 128-well diet tray assay. […] Trays were covered with a clear self-adhesive cover and held at 25° C., 14:10 light-dark for five to seven days. Percent mortality was recorded for the larvae in each well; activity in the eight wells was then averaged. The results are indicated in the table entitled “Table 5: Biological Results” (See Table Section).

| Compound | mortality at 200 ppm ([1]; green peach aphid, 200 ppm) | mortality at 50 µg/cm2 ([2]; beet armyworm, 50 μg/cm^2) | mortality at 50 µg/cm2 ([3]; corn earworm, 50 μg/cm^2) | mortality at 200 ppm [1] | mortality at 50 µg/cm2 [2] | mortality at 50 µg/cm2 [3] |
| --- | --- | --- | --- | --- | --- | --- |
| Cc1cnccc1N1C(=O)CS/C1=N\N=C\c1ccc(-c2ncn(-c3ccc(OC(F)(F)F)cc3)n2)cc1 [Compound 118C] | 0% | 50 to 100% | 50 to 100% | – | – | – |
| CC1CS/C(=N\N=C\c2ccc(-c3ncn(-c4ccc(OC(F)(F)F)cc4)n3)cc2)N1c1ccccc1OC(F)(F)F (centres unmarked) [Compound 168C] | 0% | 50 to 100% | 50 to 100% | – | – | – |
| Cc1cccc(C)c1/N=C(/N/N=C/c1ccc(-c2ncn(-c3ccc(OC(F)(F)F)cc3)n2)cc1)SC/C=C/Br [Compound 4C] | 0 to 80% | 50 to 100% | 50 to 100% | – | – | – |
| Cc1cc(C)c(N2CCCS/C2=N\N=C\c2ccc(-c3ncn(-c4ccc(OC(F)(F)F)cc4)n3)cc2)c(C)c1 [Compound 184C] | 0% | 50 to 100% | 50 to 100% | – | – | – |
| COc1cc(C)c(/N=C(/N/N=C/c2ccc(-c3ncn(-c4ccc(OC(F)(F)C(F)(F)F)cc4)n3)cc2)SCC(=O)O)c(C)c1 [Compound 51C] | 0% | 50 to 100% | 50 to 100% | – | – | – |
| O=C1CS/C(=N\N=C\c2ccc(-c3ncn(-c4ccc(OC(F)(F)F)cc4)n3)cc2)N1c1ccccc1C1CC1 [Compound 112C] | 0 to 80% | 50 to 100% | 50 to 100% | – | – | – |
| Cc1ncccc1N1CCCS/C1=N\N=C\c1ccc(-c2ncn(-c3ccc(OC(F)(F)F)cc3)n2)cc1 [Compound 205C] | 0 to 80% | 50 to 100% | 50 to 100% | – | – | – |
| Cc1cccc(C)c1/N=C(/N/N=C/c1ccc(-c2ncn(-c3ccc(OC(F)(F)F)cc3)n2)cc1)SCc1cccc2nsnc12 [Compound 14C] | 0 to 80% | 50 to 100% | 50 to 100% | – | – | – |
| Cc1cccc(C)c1/N=C(/N/N=C/c1ccc(-c2ncn(-c3ccc(OC(F)(F)F)cc3)n2)cc1)SCOC(=O)C1CCCC1 [Compound 35C] | 0 to 80% | 50 to 100% | 50 to 100% | – | – | – |
| Cc1cccc(C)c1/N=C(/N/N=C/c1ccc(-c2ncn(-c3ccc(OC(F)(F)F)cc3)n2)cc1)SCOC(=O)CNC(=O)OCc1ccccc1 [Compound 23C] | – | – | – | 0% | 50 to 100% | 50 to 100% |
| COc1cc(C)c(/N=C(/N/N=C/c2ccc(-c3ncn(-c4ccc(OC(F)(F)F)cc4)n3)cc2)SCC(=O)C2CCNCC2)c(C)c1 [Compound 65C] | 0 to 80% | 50 to 100% | 50 to 100% | – | – | – |
| Cc1cccc(C)c1-n1c(-c2ccc(OC(F)(F)F)cc2)cs/c1=N\N=Cc1ccc(-c2ncn(-c3ccc(OC(F)(F)F)cc3)n2)cc1 [Compound 78C] | 0 to 80% | 50 to 100% | 50 to 100% | – | – | – |
| Fc1cccc(F)c1N1CCCS/C1=N\N=C\c1ccc(-c2ncn(-c3ccc(OC(F)(F)F)cc3)n2)cc1 [Compound 189C] | 0 to 80% | 50 to 100% | 50 to 100% | – | – | – |
| CC(C)c1ccccc1/N=C1\SCCCN1/N=C/c1ccc(-c2ncn(-c3ccc(C(F)(F)F)cc3)n2)cc1 [Compound 87C, (2Z,NE)-2-((2-isopropylphenyl)imino)-N-(4-(1-(4-(trifluoromethyl)phenyl)-1H-1,2,4-triazol-3-yl)benzylidene)-1,3-thiazinan-3-amine] | 0 to 80% | – | – | – | – | – |
| Cc1cccc(C)c1/N=C(/N/N=C/c1ccc(-c2ncn(-c3ccc(OC(F)(F)F)cc3)n2)cc1)SCOC(=O)C(C)OCC(F)(F)F (centres unmarked) [Compound 39C] | 0% | – | – | – | – | – |
| CCOCC(=O)OCS/C(=N\c1c(Cl)cc(OC)cc1Cl)N/N=C/c1ccc(-c2ncn(-c3ccc(OC(F)(F)F)cc3)n2)cc1 [Compound 32C] | 0 to 80% | – | – | – | – | – |
| COc1cc(C)c(/N=C(/N/N=C(\C)c2ccc(-c3ncn(-c4ccc(OC(F)(F)F)cc4)n3)cc2)SCOC(=O)C(C)C)c(C)c1 [Compound 26C] | 0% | – | – | – | – | – |
| COc1cccc(N2C(=O)CS/C2=N\N=C\c2ccc(-c3ncn(-c4ccc(OC(F)(F)F)cc4)n3)cc2)c1 [Compound 91C] | – | 0% | 0% | – | – | – |
| COc1cc(C)c(N2C(=O)CS/C2=N\N=C\c2ccc(-c3ncn(-c4ccc(OC(F)(F)F)cc4)n3)cc2)c(C)n1 [Compound 101C] | – | 50 to 100% | 50 to 100% | – | – | – |

| Compound | mortality at 200 ppm ([1]; green peach aphid, 200 ppm) | mortality at 50 µg/cm2 ([2]; beet armyworm, 50 μg/cm^2) | mortality at 50 µg/cm2 ([3]; corn earworm, 50 μg/cm^2) | mortality at 200 ppm [1] | mortality at 50 µg/cm2 [2] | mortality at 50 µg/cm2 [3] |
| --- | --- | --- | --- | --- | --- | --- |
| Fc1cccc(F)c1N1CCS/C1=N\N=C\c1ccc(-c2ncn(-c3ccc(OC(F)(F)F)cc3)n2)cc1 [Compound 148C] | – | 50 to 100% | 50 to 100% | – | – | – |
| Cc1cccc(N2/C(=N/N=C/c3ccc(-c4ncn(-c5ccc(OC(F)(F)F)cc5)n4)cc3)SCC2(C)O)c1C(C)C (centres unmarked) [Compound 252C] | – | 50 to 100% | 50 to 100% | – | – | – |
| COCCC(=O)S/C(=N\c1c(C)cccc1C)N/N=C/c1ccc(-c2ncn(-c3ccc(OC(F)(F)F)cc3)n2)cc1 [Compound 21C] | 0% | – | – | – | – | – |
| CCOc1ccccc1N1C(=O)CS/C1=N\N=C\c1ccc(-c2ncn(-c3ccc(OC(F)(F)F)cc3)n2)cc1 [Compound 116C] | – | 50 to 100% | 50 to 100% | – | – | – |
| FC(F)(F)Oc1ccc(-n2cnc(-c3ccc(/C=N/N=C4\SCCN4c4ccccc4OC(F)(F)F)cc3)n2)cc1 [Compound 153C] | – | 0% | 50 to 100% | – | – | – |
| CCc1cccnc1N1C(=O)CS/C1=N\N=C\c1ccc(-c2ncn(-c3ccc(OC(F)(F)F)cc3)n2)cc1 [Compound 123C] | – | 50 to 100% | 50 to 100% | – | – | – |
| CN(C)c1cccc(N2C(=O)CS/C2=N\N=C\c2ccc(-c3ncn(-c4ccc(OC(F)(F)F)cc4)n3)cc2)c1 [Compound 97C] | – | 50 to 100% | 50 to 100% | – | – | – |
| CC1CS/C(=N\N=C\c2ccc(-c3ncn(-c4ccc(OC(F)(F)F)cc4)n3)cc2)N1c1ccccc1C(C)(C)C (centres unmarked) [Compound 165C] | – | 50 to 100% | 50 to 100% | – | – | – |
| CCCc1ccccc1N1C(=O)C(C)S/C1=N\N=C\c1ccc(-c2ncn(-c3ccc(OC(F)(F)F)cc3)n2)cc1 (centres unmarked) [Compound 128C] | – | 50 to 100% | 50 to 100% | – | – | – |
| CC(C)(C)c1ccccc1N1C(=O)CCS/C1=N\N=C\c1ccc(-c2ncn(-c3ccc(OC(F)(F)F)cc3)n2)cc1 [Compound 232C] | – | 50 to 100% | 50 to 100% | – | – | – |
| O=C1CS/C(=N\N=C\c2ccc(-c3ncn(-c4ccc(OC(F)(F)F)cc4)n3)cc2)N1c1c(Br)cccc1Br [Compound 99C] | – | 50 to 100% | 50 to 100% | – | – | – |
| CCc1cccc(C)c1N1C(=O)CCS/C1=N\N=C\c1ccc(-c2ncn(-c3ccc(OC(F)(F)F)cc3)n2)cc1 [Compound 225C] | – | 50 to 100% | 50 to 100% | – | – | – |
| CC(C)c1ccccc1N1/C(=N/N=C/c2ccc(-c3ncn(-c4ccc(OC(F)(F)F)cc4)n3)cc2)SCC1(O)C(F)(F)F (racemic) [Compound 246C] | – | 50 to 100% | 50 to 100% | – | – | – |
| COc1cc(Cl)c(/N=C(/N/N=C/c2ccc(-c3ncn(-c4ccc(OC(F)(F)F)cc4)n3)cc2)SCOC(=O)C(C)C)c(Cl)c1 [Compound 34C] | 0 to 80% | – | – | – | – | – |
| Cc1ccccc1N1C(=O)CS/C1=N\N=C\c1ccc(-c2ncn(-c3ccc(OC(F)(F)F)cc3)n2)cc1 [Compound 113C] | – | 50 to 100% | 50 to 100% | – | – | – |
| CC1CS/C(=N\N=C\c2ccc(-c3ncn(-c4ccc(OC(F)(F)F)cc4)n3)cc2)N1c1c(Cl)cccc1C(F)(F)F (centres unmarked) [Compound 160C] | – | 50 to 100% | 50 to 100% | – | – | – |
| Cc1cccc(C)c1N1C(=O)CCS/C1=N\N=C\c1ccc(-c2ncn(-c3ccc(OC(F)(F)F)cc3)n2)cc1 [Compound 223C] | – | 50 to 100% | 50 to 100% | – | – | – |
| COC(=O)C1CC(c2ccc(/C=N/N=C3\SCC(=O)N3c3c(C)cccc3C)cc2)=NN1c1ccc(OC(F)(F)F)cc1 (centres unmarked) [Compound 110C] | – | 50 to 100% | 50 to 100% | – | – | – |
| CC1(O)CS/C(=N\c2c(Cl)cccc2C(F)(F)F)N1/N=C/c1ccc(-c2ncn(-c3ccc(OC(F)(F)F)cc3)n2)cc1 (centres unmarked) [Compound 241C, (Z)-2-((2-chloro-6-(trifluoromethyl)phenyl)imino)-4-methyl-3-((E)-(4-(1-(4-(trifluoromethoxy)phenyl)-1H-1,2,4-triazol-3-yl)benzylidene)amino)thiazolidin-4-ol] | – | 50 to 100% | 50 to 100% | – | – | – |
